Experimental data taken from patent US6673827B1, “Methods of treating fungal infections with inhibitors of NAD synthetase enzyme” (priority 1999, dated 2004).
In brackets after ≈: the same amount, converted by molar mass. Read-outs that look alike come from different tables or passages of the source.

Columns and labels:
[1] = biological target: T1, NAD synthetase (recombinant protein from B. subtilis; purified) (Bacillus subtilis, UniProt P08164); assay: NAD synthetase enzyme inhibition assay (coupled enzymatic assay, HTS); assay type: biochemical; details: IC50 (μg/mL) for Inhibit. of NAD Synthetase, table of structures used in the yeast assay (Example 4)
T1 construct: made in house
T1 sequence (P08164 whole entry): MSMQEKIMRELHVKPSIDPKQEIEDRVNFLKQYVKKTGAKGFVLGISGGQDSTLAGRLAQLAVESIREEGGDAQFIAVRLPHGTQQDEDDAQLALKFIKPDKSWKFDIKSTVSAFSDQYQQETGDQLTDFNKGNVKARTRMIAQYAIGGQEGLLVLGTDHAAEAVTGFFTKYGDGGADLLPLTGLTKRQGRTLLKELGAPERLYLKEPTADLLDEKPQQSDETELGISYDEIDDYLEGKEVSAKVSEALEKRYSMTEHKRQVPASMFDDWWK
Experimental: NAD Synthetase Enzyme Inhibition Assay-Determination of Test Compound Concentrations Providing 50% Inhibition ([…]) of the Maximum Enzyme Rate
The potential inhibitory activity of the synthetic compounds was determined by the use of a coupled enzymatic assay. The coupled assay involves two steps as summarized below. [drawing 98]
The measurement of inhibitory activities of the test compounds was facilitated by the use of a high through-put screening system (HTS system). The HTS system utilizes an integrated Sagian 2M ORCA robotic system coordinating the functions of a Beckman Biomek 2000 liquid handler and a Molecular Devices SpectraMax Plus spectrophotometer. The 2M ORCA robotic station is responsible for the movement of all hardware and the integration of multiple stations on the worksurface. The Biomek 2000 is programmed to perform all phases of liquid dispensing and mixing. The SpectraMax Plus spectrophotometer is equipped to monitor absorbance in a 96-well plate format.
The Biomek 2000 mixes these components utilizing a predefined mixing program. […] The reaction is monitored by measuring the increase in absorbance at 340 nm (NADH). The linear portion of the reaction is monitored for 180 sec. The initial velocity is determined using Softmax Pro, the software supplied with the Molecular Devices SpectrMax Plus spectrophotometer.
The test compounds were supplied as a stock solution with a concentration of 50 mM dissolved in 100% dimethyl sulfoxide (DMSO). An initial screen was conducted on all compounds using a 2 or 3 concentration screen. The 2 panel screen used concentrations of 0.2 mM and 0.1 mM for the compounds. The 3 panel screen used concentrations of 0.2 mM, 0.1 mM, and 0.05 mM. […] The IC50 values for each compound were determined graphically from a plot of % inhibition versus […].

[2] = test system: Candida tropicalis ATCC 750; assay: In vitro study of inhibition of growth and lethality against yeast (MIC/MLC susceptibility test), isolate A; assay type: cell-based; details: Candida tropicalis, 2nd pair of lines, isolate assigned by line order; for MFC: ATCC750, read-out: Minimum Lethal Conc. (MLC)
[3] = test system: Candida tropicalis ATCC 28707; assay: In vitro study of inhibition of growth and lethality against yeast (MIC/MLC susceptibility test), isolate B; assay type: cell-based; details: Candida tropicalis, 1st pair of lines, isolate assigned by line order; for MFC: ATCC28707, read-out: Minimum Lethal Conc. (MLC)
[4] = test system: Candida albicans KJP-000531594; assay: In vitro study of inhibition of growth and lethality against yeast (MIC/MLC susceptibility test), isolate C; assay type: cell-based; details: Candida albicans, Candida albicans, 1st pair of lines; for MFC: KJP000531594, read-out: Minimum Lethal Conc. (MLC)
[5] = test system: Candida albicans LH-000664533; assay: In vitro study of inhibition of growth and lethality against yeast (MIC/MLC susceptibility test), isolate D; assay type: cell-based; details: Candida albicans, Candida albicans, 2nd pair of lines, isolate assigned by line order; for MFC: LH000664533, read-out: Minimum Lethal Conc. (MLC)
[6] = test system: Torulopsis glabrata JHC-BC9951635; assay: In vitro study of inhibition of growth and lethality against yeast (MIC/MLC susceptibility test), isolate E; assay type: cell-based; details: Torulopsis glabrata, 2nd pair of lines, isolate assigned by line order; for MIC / MFC: Nakaseomyces glabratus; for MFC: JHCBC9951635, read-out: Minimum Lethal Conc. (MLC)
[7] = test system: Torulopsis glabrata ERH-BC9938274; assay: In vitro study of inhibition of growth and lethality against yeast (MIC/MLC susceptibility test), isolate F; assay type: cell-based; details: Torulopsis glabrata, 1st pair of lines, isolate assigned by line order; for MIC / MFC: Nakaseomyces glabratus; for MFC: ERHBC9938274, read-out: Minimum Lethal Conc. (MLC)
[8] = test system: Cryptococcus neoformans DLB-1027594CNC; assay: In vitro study of inhibition of growth and lethality against yeast (MIC/MLC susceptibility test), isolate G; assay type: cell-based; details: Cryptococcus neoformans, Cryptococcus neoformans, 1st pair of lines, isolate assigned by line order; for MIC / MFC: DLB1027594CNC; for MFC: read-out: Minimum Lethal Conc. (MLC)
[9] = test system: Cryptococcus neoformans SLP-BC0012854; assay: In vitro study of inhibition of growth and lethality against yeast (MIC/MLC susceptibility test), isolate H; assay type: cell-based; details: Cryptococcus neoformans, Cryptococcus neoformans, 2nd pair of lines, isolate assigned by line order; for MFC: SLPBC0012854, read-out: Minimum Lethal Conc. (MLC)
[10] = ATCC750, 24 h, read at 24 hr, read-out: Minimum Inhibitory Conc. (MIC), 24 hr.
[11] = ATCC750, 48 h, read at 48 hr, read-out: Minimum Inhibitory Conc. (MIC), 48 hr.
[12] = ATCC28707, 24 h, read at 24 hr, read-out: Minimum Inhibitory Conc. (MIC), 24 hr.
[13] = ATCC28707, 48 h, read at 48 hr, read-out: Minimum Inhibitory Conc. (MIC), 48 hr.
[14] = KJP000531594, 24 h, read at 24 hr, isolate not given, assigned by line order and MLC of Table 4B, read-out: Minimum Inhibitory Conc. (MIC), 24 hr.
[15] = KJP000531594, 48 h, read at 48 hr, isolate assigned by line order, read-out: Minimum Inhibitory Conc. (MIC), 48 hr.
[16] = LH000664533, 24 h, read at 24 hr, read-out: Minimum Inhibitory Conc. (MIC), 24 hr.
[17] = LH000664533, 48 h, read at 48 hr, read-out: Minimum Inhibitory Conc. (MIC), 48 hr.
[18] = JHCBC9951635, 24 h, read at 24 hr, read-out: Minimum Inhibitory Conc. (MIC), 24 hr.
[19] = JHCBC9951635, 48 h, read at 48 hr, read-out: Minimum Inhibitory Conc. (MIC), 48 hr.
[20] = ERHBC9938274, 24 h, read at 24 hr, read-out: Minimum Inhibitory Conc. (MIC), 24 hr.
[21] = ERHBC9938274, 48 h, read at 48 hr, read-out: Minimum Inhibitory Conc. (MIC), 48 hr.
[22] = 48 h, read at 48 hr, read-out: Minimum Inhibitory Conc. (MIC), 48 hr.
[23] = 72 h, read at 72 hr, read-out: Minimum Inhibitory Conc. (MIC), 72 hr.
[24] = SLPBC0012854, 48 h, read at 48 hr, read-out: Minimum Inhibitory Conc. (MIC), 48 hr.
[25] = SLPBC0012854, 72 h, read at 72 hr, read-out: Minimum Inhibitory Conc. (MIC), 72 hr.

Row | SMILES | IC50 [1] | MFC [2] | MIC [2, 10] | MIC [2, 11] | MFC [3] | MIC [3, 12] | MIC [3, 13] | MIC [4, 14] | MIC [4, 15] | MFC ([4]; isolate assigned by line order) | MIC [5, 16] | MIC [5, 17] | MFC [5] | MIC [6, 18] | MIC [6, 19] | MFC [6] | MIC [7, 20] | MIC [7, 21] | MFC [7] | MIC [8, 23] | also measured
1 | C[N+](C)(C)C(CCc1ccccc1)C(=O)OCCCCCCCCOc1ccc(OCc2ccccc2)cc1.[I-] (stereo not drawn) [Compound 1260] | 45.5 µM | 2 µg/mL | 2 µg/mL | 2 µg/mL | 1 µg/mL | 1 µg/mL | 1 µg/mL | 2 µg/mL | 2 µg/mL | 2 µg/mL | 2 µg/mL | 2 µg/mL | 4 µg/mL | 2 µg/mL | 2 µg/mL | 2 µg/mL | 2 µg/mL | 2 µg/mL | 2 µg/mL | 1 µg/mL | MIC [8, 22]: 1 µg/mL; MFC [8]: 2 µg/mL; MIC [9, 24]: 1 µg/mL; MIC [9, 25]: 1 µg/mL; MFC [9]: 2 µg/mL
2 | C[N+](C)(C)c1ccc(CCCC(=O)OCCCCCCCCOc2ccc(OCc3ccccc3)cc2)cc1.[I-] [Compound 1200] | 53.1 µM | 1 µg/mL | 2 µg/mL | 2 µg/mL | 1 µg/mL | 1 µg/mL | 1 µg/mL | 2 µg/mL | 2 µg/mL | 2 µg/mL | 2 µg/mL | 2 µg/mL | 2 µg/mL | 1 µg/mL | 1 µg/mL | 1 µg/mL | 1 µg/mL | 2 µg/mL | 2 µg/mL | 2 µg/mL | Minimum Inhibitory Conc. (MIC), 24 hr. ([2]; read at 24 hr): 1 µg/mL; Minimum Inhibitory Conc. (MIC), 48 hr. ([2]; read at 48 hr): 1 µg/mL; MIC [8, 22]: 2 µg/mL; MFC [8]: 4 µg/mL; MIC [9, 24]: 2 µg/mL; MIC [9, 25]: 2 µg/mL; MFC [9]: 4 µg/mL
3 | COC(=O)c1cc2ccccc2[n+](C)c1-c1c[nH]c2ccccc12.[I-] [Compound 1500] | > 450 µM | > 32 µg/mL | 32 µg/mL | > 32 µg/mL | 8 µg/mL | 4 µg/mL | 8 µg/mL | 32 µg/mL | > 32 µg/mL | > 32 µg/mL | 32 µg/mL | > 32 µg/mL | > 32 µg/mL | 32 µg/mL | > 32 µg/mL | > 32 µg/mL | 32 µg/mL | > 32 µg/mL | > 32 µg/mL | 32 µg/mL | Minimum Inhibitory Conc. (MIC), 24 hr. ([2]; read at 24 hr): >32 µg/mL; Minimum Inhibitory Conc. (MIC), 24 hr. ([4]; read at 24 hr, isolate not given, assigned by line order and MLC of Table 4B): >32 µg/mL; Minimum Inhibitory Conc. (MIC), 24 hr. ([5]; read at 24 hr): >32 µg/mL; Minimum Inhibitory Conc. (MIC), 24 hr. ([6]; read at 24 hr): >32 µg/mL; Minimum Inhibitory Conc. (MIC), 24 hr. ([7]; read at 24 hr): >32 µg/mL; Minimum Inhibitory Conc. (MIC), 72 hr. ([8]; read at 72 hr): >32 µg/mL; MIC [8, 22]: 32 µg/mL; MFC [8]: > 32 µg/mL; Minimum Inhibitory Conc. (MIC), 72 hr. ([9]; read at 72 hr): >32 µg/mL; MIC [9, 24]: 32 µg/mL; MIC [9, 25]: 32 µg/mL; MFC [9]: > 32 µg/mL
4 | Cc1[nH]c2ccccc2c1/C=C/C1=[N+](C)c2ccccc2C1(C)C.[Cl-] [Compound 1400] | > 570 µM | > 32 µg/mL | > 32 µg/mL | > 32 µg/mL | 16 µg/mL | 16 µg/mL | 32 µg/mL | > 32 µg/mL | > 32 µg/mL | > 32 µg/mL | > 32 µg/mL | > 32 µg/mL | > 32 µg/mL | > 33 µg/mL | > 32 µg/mL | > 32 µg/mL | > 34 µg/mL | > 32 µg/mL | > 32 µg/mL | > 32 µg/mL | Minimum Inhibitory Conc. (MIC), 48 hr. ([3]; read at 48 hr): 16 µg/mL; Minimum Inhibitory Conc. (MIC), 24 hr. ([6]; read at 24 hr): >32 µg/mL; Minimum Inhibitory Conc. (MIC), 24 hr. ([7]; read at 24 hr): >32 µg/mL; MIC [8, 22]: > 32 µg/mL; MFC [8]: > 32 µg/mL; MIC [9, 24]: > 32 µg/mL; MIC [9, 25]: > 32 µg/mL; MFC [9]: > 32 µg/mL
5 | COC(=O)c1cc2cc(OCc3ccccc3)ccc2n1CCCCCCCOC(=O)c1ccc(CN(C)C)cc1 [Compound 1096] | 180 µM | > 32 µg/mL | > 32 µg/mL | > 32 µg/mL | 16 µg/mL (≈ 28.7 µM) | 4 µg/mL (≈ 7.19 µM) | 8 µg/mL (≈ 14.4 µM) | > 32 µg/mL | > 32 µg/mL | > 32 µg/mL | > 32 µg/mL | > 32 µg/mL | > 32 µg/mL | > 32 µg/mL | > 32 µg/mL | > 32 µg/mL | > 32 µg/mL | > 32 µg/mL | > 32 µg/mL | > 32 µg/mL | Minimum Inhibitory Conc. (MIC), 24 hr. ([3]; read at 24 hr): 2 µg/mL; Minimum Inhibitory Conc. (MIC), 48 hr. ([3]; read at 48 hr): 16 µg/mL; Minimum Inhibitory Conc. (MIC), 72 hr. ([8]; read at 72 hr): 16 µg/mL; MFC [8]: > 32 µg/mL; Minimum Inhibitory Conc. (MIC), 48 hr. ([9]; read at 48 hr): 32 µg/mL; Minimum Inhibitory Conc. (MIC), 72 hr. ([9]; read at 72 hr): 32 µg/mL; MIC [9, 24]: > 32 µg/mL; MIC [9, 25]: > 32 µg/mL; MFC [9]: > 32 µg/mL
